Key:
[1] = tested on: U2932 cells; experiment: Cell viability by trypan blue assay, U2932; type: cell-based, human; conditions: U2932, in comparison to PBS treated control cells
Protocol: (§1) Cell viability was performed using trypan blue-based assay (n=3 technical triplicate), data represented as mean±(SEM), * represents the statistical analysis were performed relative to Scr-γtcPNA-155 and ♦ represent analysis performed relative to PNA-155. *p<0.05, **p<0.01, ***p<0.001 and ****p<0.0001, ♦p<0.05, ♦♦p<0.01, unpaired two-tailed t-test was used for statistical analysis. The experiment was repeated three times and in triplicate.
(§2) Cell viability was performed using trypan blue-based assay (n=3), data represented as mean±standard error mean (SEM), *p<0.05, **p<0.01. Unpaired two-tailed t-test was used for statistical analysis.
(§3) Cell viability was performed using trypan blue-based assay (n=3), data represented as mean±standard error mean (SEM).
(§4) Cell viability by trypan blue assay: Diffused large B cell lymphoma (DLBCL) cell lines like SUDHL-2 (ATCC® CRL-2956™) and SUDHL-5 (ATCC® CRL-2958™) cells were purchased from ATCC (Virginia, USA). The cells were regularly tested for Mycoplasma contamination using MycoAlert™ Mycoplasma detection kit (Lonza). All the cells used in the experiment were passaged less than 8 times. 10,000 U2932, SUDHL-5, or SUDHL-2 cells were plated in a 96 well plate. The cells were treated with different doses (500 nM, 1000 nM, 2000 nM and 4000 nM) of PNA-155, gamma tcPNA-155 or Scr-γtcPNA-155 for 48 hrs in an incubator (37° C. and 5% CO2). The dead cells were marked with trypan blue. Further counting was performed using an automated cell counter (Bio-rad).

[2] = tested on: SUDHL-2 cells; experiment: Cell viability by trypan blue assay, SUDHL-2; type: cell-based; conditions: SUDHL-2, in comparison to PBS treated control cells
Protocol: as §1, §2, §3, §4

[3] = tested on: SUDHL-5 cells; experiment: Cell viability by trypan blue assay, SUDHL-5; type: cell-based; conditions: SUDHL-5, in comparison to PBS treated control cells
Protocol: as §1, §2, §3, §4

[4] = tested on: PBMC cells; experiment: Safety assessment by trypan blue assay in PBMC; type: cell-based; conditions: 500-4000 nM, 48 hours
Protocol: Control is PBS treated PBMC cells. n=3, data represented as mean±standard error mean (SEM).
Safety assessment by trypan blue assay […] blood mononuclear cells (PBMC) (ATCC® PCS-800-011™) were purchased from ATCC (Virginia, USA). The cells were regularly tested for Mycoplasma contamination using MycoAlert™ Mycoplasma detection kit (Lonza). All the cells used in the experiment were passaged less than 2 times. 10,000 PBMC cells were seeded in a 96 well plate. The cells were treated with 500 nM, 1000 nM, 2000 nM and 4000 nM PNA-155 and γtcPNA-155 for 48 hrs in an incubator. The dead cells were examined with trypan blue and further counted using an automated cell counter (Bio-rad).

[5] = tested on: U2932 subcutaneous tumors; experiment: Tumor growth in U2932 derived xenograft model; type: in vivo, NSG mice; conditions: intra-tumoral injections days 0, 7, 14
Protocol: Mouse tumor xenograft: Female NSG mice (NOD.Cg-Prkdcscid Il2rgtm1Wjl/SzJ, strain 005557) weighing 20-23 g were procured from Jackson laboratories. 1×10^7 U2932 cells suspended in RPMI-1640 medium were injected subcutaneously in the right and left flank of 6-week-old NSG mice. The mice developed a small bump in 2 weeks. When the tumor volume reached 100-200 mm^3, the mice were randomly assigned to the treatment group (n=6 per group).
(§5) RNA and Protein extraction from tumor samples: The mice were injected intra-tumorally with 1 mg kg-1 dose of PNA-155, γtcPNA-155, γPNA-155, Scr-γtcPNA-155 or were untreated. The injections were repeated two additional times after 1 week each. The length, breadth, and depth of the tumors were measured daily using a vernier caliper. The mice were euthanized when the tumor volumes reached 2000 mm^3. The resected tumor sections were finely minced using a sterile blade and suspended in dissociation media (4 ml) comprising of RPMI-1640, 1.2 mg/ml dispase, and 0.5 mg/ml collagenase for 90 mins at 500 rpm at 37° C. The dissociated tumors were washed with buffer saline at 2500 rpm (4 mins) at 4° C. and then suspended in 0.25% trypsin for 4 mins at room temperature. RPMI 1640 media was added to the trypsinized tumor mass, and the cells were passed through a 70 um filter. The cells were centrifuged at 2500 rpm for 4 mins at 4° C. The cell pellet was then suspended in 1×RBC lysis buffer (Sigma) and incubated on ice for 10 mins. PBS was added to the cells and the cells were passed through a 40 um filter. The cells were centrifuged at 2500 rpm for 4 mins at 4° C. The cell pellet was resuspended in 0.5% BSA in PBS. The mouse cells were removed from the tumor cells using a mouse cell depletion kit (Miltenyi Biotec) according to the manufacturer's protocol. The enriched tumor cells from each tumor sample were divided into two fractions. RNA for gene expression analysis was extracted from one tumor fraction by the same procedure as mentioned earlier. The protein for western blot analysis was extracted from the second fraction using the method described above.
For the efficacy study, each mouse received three intra-tumoral injections of either γtcPNA-155, γPNA-155 or PNA-155 on days 0, 7, 14. We noticed that the control and scrambled treated tumors reached 2000 mm^3 much faster during our study, so we could not inject a third time in these mice. […] In contrast, as stated earlier, there was no effect on the control and scrambled PNA control on the tumor volume.

[6] = tested on: miR-155; experiment: miR-155 gene expression in U2932 tumor samples after in vivo treatment; set-up: species or system NSG mice; conditions: U2932 xenograft
Protocol: (§6) FIGS. 22A-D show in vivo gene expression and protein level analysis. (22A) miR-155 gene expression levels in U2932 tumor samples after in vivo treatment with indicated PNAs. Data was normalized with average control U6 (n=4, data represented as mean±standard error mean). ***p<0.001 (22B) Gene expression level of downstream target genes of miR-155: MCL1 in U2932 tumor samples after treatment with total 3 mg kg-1 dose of Scr-γtcPNA-155, PNA-155, γPNA-155 and γtcPNA-155 and normalized with average control GAPDH (n=3, data represented as mean±SEM), unpaired two-tailed t-test was performed for analysis). *p<0.05, **p<0.01 (22C) Representative western blot of Mcl-1 protein and its quantification (n=3 technical replicate) in U2932 tumor samples treated with total 3 mg kg-1 dose of Scr-γtcPNA-155, PNA-155 and γtcPNA-155. Data is represented as mean±SEM and unpaired two-tailed t-test was performed for analysis. *p<0.05. The relative protein levels were determined from the band intensity using ImageJ software and normalized relative to loading control and treatment control. (22D) Gene expression level of tumor suppressor proteins (FOXO3A, CUX1, SOCS1, CSF1R, JARID2, SHIP1, PICALM, PDCD4, BACH1, CASP3) in U2932 tumor samples after treatment with total 3 mg kg-1 dose of Scr-γtcPNA-155, PNA-155, γPNA-155 and γtcPNA-155 and normalized with average control GAPDH (n=3, data represented as mean±SEM, unpaired two-tailed t-test was performed for statistical analysis). *p<0.05, **p<0.01.
as §5, with “The mouse cells were removed from the tumor cells using a mouse cell depletion kit (Miltenyi Biotec) according to the manufacturer's protocol. The enriched tumor cells from each tumor sample were divided into two fractions. RNA for gene expression analysis was extracted from one tumor fraction by the same procedure as mentioned earlier. The protein for western blot analysis was extracted from the second fraction using the method described above.” left out

[7] = tested on: miR-155 downstream genes; experiment: Downstream gene expression and protein levels in U2932 tumor samples; type: in vivo, NSG mice; conditions: U2932 xenograft
Protocol: as §6
Data is represented as mean±SEM and unpaired t-test was used for statistical analysis *p<0.05. The relative protein levels were determined from the band intensity using ImageJ software and normalized relative to loading control and treatment control.
Data is represented as mean±SEM and unpaired t-test was used for statistical analysis.
Data is represented as mean±SEM and unpaired t-test was used for statistical analysis. The relative protein levels were determined from the band intensity using ImageJ software and normalized relative to loading control and treatment control.
as §5

[8] = tested on: U2932 lymphoma cell line; conditions: U2932, 10 uM; cited from earlier work

Substance | effect on cell viability [1] | effect on cell viability [2] | effect on cell viability [3] | viability of PBMC cell lines [4] | tumor growth / tumor volume [5] | miR-155 expression level in tumors (change) [6] | alteration in gene expression in tumors [7] | Mcl-1 protein level in tumors ([7]; western blot) | increase in apoptosis compared to control [8] [fold]
Scr-γtcPNA-155: scrambled γtcPNA-155 synthesized as a control, SEQ ID NO: 4 (ACNTGCCATTNCACGAACNCT; gamma PNA backbone; scramble sequence; misc_feature 1 Arg-Arg-adenine-thymine-pseudoisocytosine-thymine -adenine-11-amino-3,6,9-trioxaundecanoic acid covalently linked to the backbone; modified_base 3 OTHER; n is pseudoisocytosine; modified_base 11 OTHER; misc_feature 21 Arg-Arg covalently linked to the backbone; modified_base 19 OTHER; modified_base 1..21 OTHER; peptid) [reference compound] | did not notice any effect on cell viability | did not notice any effect on cell viability | did not notice any effect on cell viability | do not cause any non-specific effects | no effect | did not observe a change | did not notice any alteration | did not notice any alteration | –
cobomarsen | – | – | – | – | – | – | – | – | 4
